Experimental findings from publication PMC9100673, “Acridine Based N-Acylhydrazone Derivatives as Potential Anticancer Agents: Synthesis, Characterization and ctDNA/HSA Spectroscopic Binding Properties” (Molecules, 2022) are described below.

Assay [1] relates to A549 cells. The experiment in a line: Quantification of cell number and viability (eosin staining, Bürker chamber). It is filed as cell-based, human. The conditions noted are these: 50 μM, 48 h. How it is done: For the assessment of total cell numbers and viability within individual experimental groups, floating and adherent cells were harvested after treatment with the studied compounds and evaluated using a Bürker chamber with eosin staining. A549 cells were plated at a density of 135 × 10^3 cell/well into a 6-well plate and treated with different concentration of derivatives (25 and 50 µM) for 48 h. The total cell number was expressed as a percentage of the untreated control of the total cell number. Viability was expressed as a percentage of viable, eosin negative cells. The results are presented as the average percentage of cells from three independent experiments.

In assay [2] the test system is A549 cells. The experiment in a line: Cell cycle analysis by flow cytometry. It is filed as cell-based, human. Conditions: 25 and 50 μM, 48 h. As for the experimental part:
For flow cytometric analysis of the cell cycle distribution, floating and adherent cells were harvested together 48 h after treatment with the compounds (25 and 50 µM), washed in cold PBS, fixed in cold 70% ethanol, and stored overnight at −20 °C. Prior to analysis, the cells were washed twice in PBS, resuspended in a staining solution (0.1% Triton X-100, 0.137 g L^−1 ribonuclease A and 0.02 g L^−1 propidium iodide (PI) and incubated in dark conditions at RT for 30 min. The DNA content was analysed using a BD FACSCalibur flow cytometer (Becton Dickinson, San Jose, CA, USA) with a 488 nm argon-ion excitation laser, and fluorescence was detected using a 585/42 nm band-pass filter (FL-2). ModFit 3.0 software (Verity Software House, Topsham, ME, USA) was used to generate DNA content frequency histograms and to quantify the percentage of cells in the individual cell cycle phases. The results are presented as the average ratio of cells in the individual phase to all cells from three independent experiments.
Background: In flow cytometry, cells or beads pass a laser one at a time.

The target in assay [3] is T1, human serum albumin (HSA) (Homo sapiens, UniProt P02768).
T1 construct: purchased Sigma (St. Louis, MO, USA)
Description: HSA competitive site-marker experiment, reverse titration with 3a. It is filed as binding. The conditions noted are these: for KSV / Kb: 25 °C. How it is done: Displacement experiments were performed using warfarin and ibuprofen as site marker fluorescence probes, as these agents have been proven to bind with HSA at Sudlow sites I and II, respectively. The fluorescence quenching spectra of HSA:acridine derivatives […] (Figure 5) in the presence of increasing concentrations of specific site markers, warfarin or ibuprofen, were studied.
In addition to the spectra assays, reverse titration studies were also performed. The intensity of the fluorescence of the HSA:site marker complex was recorded at increasing concentrations of acridine derivative 3a, with the obtained results given in Figure S7. […] The obtained data were analysed using Equations (3) and (4). The linear Stern-Volmer dependence and dependence log(F0 − F)/F = log[Q] was used to obtain Stern-Volmer quenching constant values (KSV) and apparent binding constant values (Kb). […] A marked change in the quenching constant was also observed after the addition of ibuprofen, a result which could be partly due to the interaction between derivative 3a and ibuprofen. Similar changes and associated interactions between the marker and the studied ligand have been observed in other studies in which competitive experiments were conducted.
Competitive experiments of HSA were performed using warfarin and ibuprofen as standard site marker ligands. The selected markers for the site I were warfarin, whereas site II was probed using ibuprofen. HSA-acridine derivative (3a–3d) complexes at a concentration ratio of 1:1 ([HSA] = 4 μM) were titrated into specific side markers (0–20 μM). The molar ratio of the HSA:marker complexes were 1:0.5, 1:1, 1:1.5, 1:2, 1:2.5, 1:3, 1:3.5, 1:4, 1:4.5 and 1:5. The reaction mixture of the HSA-acridine derivatives complexes with the side markers were preincubated for 15 min prior to spectral measurements. Additionally, a reverse titration competitive experiment was performed for derivative 3a. The site probe-HSA complex (1:1, [HSA] = 4 μM) was titrated with derivative 3a at a concentration gradient of 0.6–6 μM. In order to determine the binding site of compound 3a, the fluorescence quenching data were analysed using Stern-Volmer and modified Stern-Volmer equations to calculate the value of the Stern-Volmer constants (KSV) and binding constants Kb, and to determine the number of binding sites n. All spectra measurements were performed at 280 nm excitation wavelength and the slits were set at 5 nm for excitation and 10 nm for emission spectra at a range of 290–550 nm and at 25 °C.

Where [4] appears, read: in the presence of ibuprofen (HSA:marker 1:1).
Setting [5] is: in the presence of warfarin (HSA:marker 1:1).

T1 sequence (P02768 25-609): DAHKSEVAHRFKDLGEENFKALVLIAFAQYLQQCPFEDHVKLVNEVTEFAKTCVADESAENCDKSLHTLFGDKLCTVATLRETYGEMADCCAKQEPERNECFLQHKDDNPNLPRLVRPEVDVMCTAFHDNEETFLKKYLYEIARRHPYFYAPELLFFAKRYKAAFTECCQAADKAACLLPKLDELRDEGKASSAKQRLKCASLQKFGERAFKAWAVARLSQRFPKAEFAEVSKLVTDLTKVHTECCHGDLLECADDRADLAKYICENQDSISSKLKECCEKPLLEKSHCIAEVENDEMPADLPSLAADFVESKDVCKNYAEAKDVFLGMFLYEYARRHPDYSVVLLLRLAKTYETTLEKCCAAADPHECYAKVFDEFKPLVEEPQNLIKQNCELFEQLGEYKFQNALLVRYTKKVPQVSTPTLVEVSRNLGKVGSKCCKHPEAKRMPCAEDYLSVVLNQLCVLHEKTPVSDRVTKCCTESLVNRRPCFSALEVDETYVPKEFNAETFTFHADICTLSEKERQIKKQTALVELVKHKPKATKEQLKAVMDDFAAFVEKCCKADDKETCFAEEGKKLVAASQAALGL

In the case of `O=C(N/N=C/c1cccc2cc3ccccc3nc12)c1ccccc1` [3a, N′-[(E)-(Acridin-4-yl)methylidene]benzohydrazide], in the assay with A549 cells [1], the “decrease of viability of A549 cells vs control” value is given as 34% and the “reduction of total cell number vs control” value is listed as “approximately 94%”. In addition, in the assay on A549 cells [2], the “effect on cell cycle distribution” value is on record as “accumulation of cells in the G2/M phase”. Moreover, the “binding site on HSA” value in assay [3] (competition with warfarin and ibuprofen) was “Sudlow site I”. In addition, in assay [3] (setting [4]), the KSV was determined as 328000 M⁻¹ and the Kb turned out to be 667000 M⁻¹. Moreover, in assay [3] (setting [5]), the KSV turned out to be 226000 M⁻¹ and the Kb was determined as 254000 M⁻¹.
Take `O=C(N/N=C/c1cccc2cc3ccccc3nc12)c1ccc(Cl)cc1` [3c, N′-[(E)-Acridin-4-ylmethylidene]-4-chlorobenzohydrazide]: in the assay with A549 cells [1], the “decrease of viability of A549 cells vs control” value was determined as 14% and the “reduction of total cell number vs control” value is recorded as roughly 91%. In the assay with A549 cells [2], the “effect on cell cycle distribution” value is given as “accumulation of cells in the G2/M phase”.
